Measured values: ChEMBL document CHEMBL1201862, “PubChem BioAssay data set” (2004)
Structures can show the parent of a compound that is named as a salt. Active and inactive are the calls of the source.

Experiments:
[1] = molecular target: Glucose-6-phosphate 1-dehydrogenase (Homo sapiens, UniProt P11413); assay: human G6PD enzyme inhibitors, dose response, selectivity assay for P. falciparum G6PD inhibitor project, biochemical, fluorescence (AID 504792); format: functional
[2] = molecular target: T1, Coagulation factor XII (Homo sapiens, UniProt P00748); format: functional;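 note: activated factor XIIa alpha cleaving a fluorogenic AMC peptide substrate; inhibitor potency from loss of enzyme activity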
T1 sequence (P00748 whole entry): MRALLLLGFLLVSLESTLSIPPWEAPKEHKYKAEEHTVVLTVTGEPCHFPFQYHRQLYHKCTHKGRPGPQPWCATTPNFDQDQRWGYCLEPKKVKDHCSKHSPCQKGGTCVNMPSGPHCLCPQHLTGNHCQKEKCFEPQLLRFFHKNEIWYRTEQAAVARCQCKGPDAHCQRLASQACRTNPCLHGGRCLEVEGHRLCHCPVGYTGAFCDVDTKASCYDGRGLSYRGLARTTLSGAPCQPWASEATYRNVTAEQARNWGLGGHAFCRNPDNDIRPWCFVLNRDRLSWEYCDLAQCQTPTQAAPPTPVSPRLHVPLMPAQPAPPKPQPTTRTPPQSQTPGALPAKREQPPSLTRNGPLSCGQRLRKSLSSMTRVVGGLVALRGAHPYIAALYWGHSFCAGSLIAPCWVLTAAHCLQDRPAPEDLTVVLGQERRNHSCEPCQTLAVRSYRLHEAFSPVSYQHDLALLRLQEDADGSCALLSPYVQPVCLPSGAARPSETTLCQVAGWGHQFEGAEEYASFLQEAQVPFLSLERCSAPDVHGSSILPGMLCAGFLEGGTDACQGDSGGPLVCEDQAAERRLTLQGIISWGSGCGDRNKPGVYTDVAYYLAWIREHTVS

[3] = molecular target: T2, Sentrin-specific protease 1 (Homo sapiens, UniProt Q9P0U3); assay: potency of human SENP1 inhibitors, dose response, biochemical, kinetic FRET (AID 651697); format: functional; conditions: read-out: IC50_Mean
T2 sequence (Q9P0U3 whole entry): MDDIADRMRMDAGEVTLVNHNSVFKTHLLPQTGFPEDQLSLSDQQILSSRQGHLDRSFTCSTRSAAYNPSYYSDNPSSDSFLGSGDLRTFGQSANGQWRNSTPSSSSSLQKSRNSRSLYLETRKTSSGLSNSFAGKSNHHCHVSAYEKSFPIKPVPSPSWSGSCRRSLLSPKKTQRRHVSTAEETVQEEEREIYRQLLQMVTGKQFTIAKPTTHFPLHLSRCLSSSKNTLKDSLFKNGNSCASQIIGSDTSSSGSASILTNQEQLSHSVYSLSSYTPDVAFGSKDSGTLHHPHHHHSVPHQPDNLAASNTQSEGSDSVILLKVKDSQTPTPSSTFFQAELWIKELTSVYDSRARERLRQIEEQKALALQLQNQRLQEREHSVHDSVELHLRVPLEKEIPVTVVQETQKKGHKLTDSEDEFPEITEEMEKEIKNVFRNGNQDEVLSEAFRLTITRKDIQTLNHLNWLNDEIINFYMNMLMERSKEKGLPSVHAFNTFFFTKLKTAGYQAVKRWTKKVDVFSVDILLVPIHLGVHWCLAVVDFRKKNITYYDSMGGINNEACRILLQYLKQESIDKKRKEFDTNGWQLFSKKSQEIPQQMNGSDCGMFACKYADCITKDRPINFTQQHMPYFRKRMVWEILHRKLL

[4] = molecular target: T2, Sentrin-specific protease 1; assay: Dose response confirmation of small molecule inhibitors of the catalytic domain of the SUMO protease, SENP1 in a FRET assay.; format: functional; conditions: read-out: IC50_Mean
[5] = AlphaScreen signal interference compounds, dose response, artefact control for ARNT-TACC3 interaction inhibitor project, biochemical, luminescence, cherry-pick (AID 651705); format: functional;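 note: AlphaScreen bead proximity signal that flags compounds interfering with the detection technology; potency reflects signal decrease which marks the compound as an assay artifact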
[6] = molecular target: T3, Latent membrane protein 1 (Human herpesvirus 4 (strain B95-8), UniProt P03230); assay: TES1-eGFP NF-kB reporter inhibition versus Tet-On dsRED, dose response, selectivity assay for LMP1 NF-kB inhibitor project, imaging, HEK293T, dual-color eGFP/dsRED, cherry-picks (AID 588398); format: functional, cell-based
T3 sequence (P03230 whole entry): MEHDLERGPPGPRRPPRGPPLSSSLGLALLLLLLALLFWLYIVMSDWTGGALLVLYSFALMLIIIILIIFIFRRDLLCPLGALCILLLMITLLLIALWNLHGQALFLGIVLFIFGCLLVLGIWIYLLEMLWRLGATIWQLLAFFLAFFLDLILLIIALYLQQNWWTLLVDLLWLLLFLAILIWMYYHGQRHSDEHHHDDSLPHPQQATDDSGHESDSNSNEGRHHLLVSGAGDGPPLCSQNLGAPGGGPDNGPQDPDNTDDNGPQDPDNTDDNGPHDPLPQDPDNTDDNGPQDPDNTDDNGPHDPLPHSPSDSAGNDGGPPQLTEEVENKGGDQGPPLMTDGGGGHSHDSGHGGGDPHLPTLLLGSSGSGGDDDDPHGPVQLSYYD

[7] = molecular target: T4, Mitochondrial peptide methionine sulfoxide reductase (Bos taurus, UniProt P54149); format: functional;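 note: absorbance read-out, biochemical high-throughput dose-response screen for MsrA inhibitors, confirmatory; recombinant bovine MsrA coupled to E. coli TrxB with NADPH and selenocystamine; potency is for inhibitors of MsrA activity on DMSO substrate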
T4 sequence (P54149 whole entry): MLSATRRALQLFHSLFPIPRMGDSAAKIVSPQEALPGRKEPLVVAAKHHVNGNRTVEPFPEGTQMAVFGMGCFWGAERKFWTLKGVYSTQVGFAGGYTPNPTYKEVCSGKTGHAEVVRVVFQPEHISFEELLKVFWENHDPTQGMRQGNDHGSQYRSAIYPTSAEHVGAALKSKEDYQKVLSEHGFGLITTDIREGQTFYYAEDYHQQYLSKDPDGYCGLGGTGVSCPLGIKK

[8] = system: HeLa; assay: HeLa cell cytotoxicity, dose response, cytotoxicity control for MITF activator project, CellTiter-Glo luminescence, cherry-pick samples (AID 540259); format: functional, cell-based; conditions: Homo sapiens
[9] = molecular target: Adenosylmethionine-8-amino-7-oxononanoate aminotransferase (Mycobacterium tuberculosis, UniProt P9WQ81); assay: Mycobacterium tuberculosis BioA enzyme inhibitor Measured in Biochemical System Using Plate Reader - 2163-02_Inhibitor_Dose_CherryPick_Activity.; format: functional, Mycobacterium tuberculosis UT205
Adenosylmethionine-8-amino-7-oxononanoate aminotransferase, sequence (P9WQ81 whole entry): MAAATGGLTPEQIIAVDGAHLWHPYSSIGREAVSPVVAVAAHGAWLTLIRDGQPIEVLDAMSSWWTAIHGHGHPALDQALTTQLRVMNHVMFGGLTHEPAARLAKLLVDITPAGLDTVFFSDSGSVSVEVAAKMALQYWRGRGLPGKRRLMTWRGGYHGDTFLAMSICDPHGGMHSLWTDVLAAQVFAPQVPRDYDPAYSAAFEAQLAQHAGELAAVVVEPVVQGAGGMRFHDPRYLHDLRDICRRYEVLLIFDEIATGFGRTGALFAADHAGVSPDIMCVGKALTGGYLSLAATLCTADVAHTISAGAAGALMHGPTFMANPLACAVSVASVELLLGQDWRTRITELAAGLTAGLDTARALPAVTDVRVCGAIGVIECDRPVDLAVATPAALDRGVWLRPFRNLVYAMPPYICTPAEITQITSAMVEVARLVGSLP

[10] = molecular target: T5, Type-1 angiotensin II receptor (Homo sapiens, UniProt P30556); assay: AT1 receptor antagonists, dose response, selectivity assay for APJ receptor antagonist project, cell-based, uHTS hits (AID 463214); format: functional;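 note: antagonist potency against angiotensin II stimulated AT1 response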
T5 sequence (P30556 whole entry): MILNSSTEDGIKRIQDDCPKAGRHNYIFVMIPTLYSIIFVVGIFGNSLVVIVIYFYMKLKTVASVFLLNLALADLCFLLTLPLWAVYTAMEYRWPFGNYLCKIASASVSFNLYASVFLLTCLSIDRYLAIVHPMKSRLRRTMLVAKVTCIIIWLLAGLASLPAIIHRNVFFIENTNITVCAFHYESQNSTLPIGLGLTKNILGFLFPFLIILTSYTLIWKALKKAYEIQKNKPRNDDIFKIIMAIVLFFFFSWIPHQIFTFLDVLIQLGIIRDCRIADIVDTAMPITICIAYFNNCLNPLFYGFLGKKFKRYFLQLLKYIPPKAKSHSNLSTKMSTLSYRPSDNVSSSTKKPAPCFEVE

[11] = molecular target: Beta-galactosidase (Escherichia coli, UniProt Q8VNN2); assay: PubChem AID 485352; format: functional
Beta-galactosidase, sequence (Q8VNN2 whole entry): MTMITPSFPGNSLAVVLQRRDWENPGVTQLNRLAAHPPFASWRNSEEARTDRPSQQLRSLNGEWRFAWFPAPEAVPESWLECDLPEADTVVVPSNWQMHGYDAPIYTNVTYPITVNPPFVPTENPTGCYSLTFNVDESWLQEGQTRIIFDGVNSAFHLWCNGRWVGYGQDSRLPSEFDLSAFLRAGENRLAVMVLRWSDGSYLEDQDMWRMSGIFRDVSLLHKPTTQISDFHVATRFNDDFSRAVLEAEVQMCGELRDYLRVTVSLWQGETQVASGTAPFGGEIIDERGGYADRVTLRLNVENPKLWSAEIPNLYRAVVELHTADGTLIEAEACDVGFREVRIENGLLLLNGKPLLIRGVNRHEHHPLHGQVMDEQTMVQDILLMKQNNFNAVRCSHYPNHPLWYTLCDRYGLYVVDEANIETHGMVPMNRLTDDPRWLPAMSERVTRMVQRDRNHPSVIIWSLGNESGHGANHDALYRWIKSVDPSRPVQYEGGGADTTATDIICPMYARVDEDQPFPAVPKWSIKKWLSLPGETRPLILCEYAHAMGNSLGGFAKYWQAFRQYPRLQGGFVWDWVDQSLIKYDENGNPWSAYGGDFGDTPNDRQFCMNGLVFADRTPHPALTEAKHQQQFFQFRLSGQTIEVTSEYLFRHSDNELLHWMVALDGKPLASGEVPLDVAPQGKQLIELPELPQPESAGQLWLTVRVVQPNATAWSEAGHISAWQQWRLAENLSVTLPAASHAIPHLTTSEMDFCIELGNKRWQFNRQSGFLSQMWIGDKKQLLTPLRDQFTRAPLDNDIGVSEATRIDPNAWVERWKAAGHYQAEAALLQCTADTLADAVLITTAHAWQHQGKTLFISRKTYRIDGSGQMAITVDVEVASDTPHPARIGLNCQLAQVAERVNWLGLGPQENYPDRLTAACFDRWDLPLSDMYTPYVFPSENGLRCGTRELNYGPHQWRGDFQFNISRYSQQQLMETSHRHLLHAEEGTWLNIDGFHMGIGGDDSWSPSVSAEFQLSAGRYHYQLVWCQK

[12] = inhibitors of firefly luciferase expression or activity, dose response, H4 neuroglioma cells, luminescence (AID 1990); format: functional, cell-based
[13] = Luminescence Cell-Based Dose Response HTS to Identify Inhibitors of 5'UTR Stem-Loop Driven Prion Protein mRNA Translation in H4 Neuroglioblastoma Cells. [Related pubchem assays: 1827 (Project Summary), 1813 (Primary HTS)]; format: functional
[14] = inhibitors of SNCA 5'UTR-driven reporter translation, confirmation, H4 neuroglioma cells, luminescence (AID 1988); format: functional, cell-based
[15] = nonselective inhibitors of cellular cAMP signaling, dose response, counter-screen for MC4R biased antagonist project, cell-based, TR-FRET cAMP detection (AID 602305); format: functional;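 note: U2OS cells stimulated with forskolin near its EC80 as the cAMP inducer; potency is for inhibition of forskolin-stimulated cAMP signaling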
[16] = molecular target: Melanocortin receptor 4 (Homo sapiens, UniProt P32245); assay: MC4R antagonist potency on cAMP, dose response, cell-based, TR-FRET, biased antagonists (AID 602298); format: functional;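 note: antagonist potency against agonist-stimulated cAMP production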
Melanocortin receptor 4, sequence (P32245 whole entry): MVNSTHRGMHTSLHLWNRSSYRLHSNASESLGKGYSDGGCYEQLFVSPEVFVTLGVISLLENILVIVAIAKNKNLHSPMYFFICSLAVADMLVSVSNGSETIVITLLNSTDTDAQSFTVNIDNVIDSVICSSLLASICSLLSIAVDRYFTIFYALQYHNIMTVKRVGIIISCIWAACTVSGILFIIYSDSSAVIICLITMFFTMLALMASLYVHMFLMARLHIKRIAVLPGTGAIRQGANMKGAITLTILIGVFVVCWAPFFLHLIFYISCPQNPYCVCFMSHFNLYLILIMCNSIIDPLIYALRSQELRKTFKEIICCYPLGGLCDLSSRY

[17] = molecular target: Luciferin 4-monooxygenase (Photinus pyralis, UniProt P08659); assay: firefly luciferase enzyme inhibitors, dose response, biochemical, luminescence (AID 1891)
Luciferin 4-monooxygenase, sequence (P08659 whole entry): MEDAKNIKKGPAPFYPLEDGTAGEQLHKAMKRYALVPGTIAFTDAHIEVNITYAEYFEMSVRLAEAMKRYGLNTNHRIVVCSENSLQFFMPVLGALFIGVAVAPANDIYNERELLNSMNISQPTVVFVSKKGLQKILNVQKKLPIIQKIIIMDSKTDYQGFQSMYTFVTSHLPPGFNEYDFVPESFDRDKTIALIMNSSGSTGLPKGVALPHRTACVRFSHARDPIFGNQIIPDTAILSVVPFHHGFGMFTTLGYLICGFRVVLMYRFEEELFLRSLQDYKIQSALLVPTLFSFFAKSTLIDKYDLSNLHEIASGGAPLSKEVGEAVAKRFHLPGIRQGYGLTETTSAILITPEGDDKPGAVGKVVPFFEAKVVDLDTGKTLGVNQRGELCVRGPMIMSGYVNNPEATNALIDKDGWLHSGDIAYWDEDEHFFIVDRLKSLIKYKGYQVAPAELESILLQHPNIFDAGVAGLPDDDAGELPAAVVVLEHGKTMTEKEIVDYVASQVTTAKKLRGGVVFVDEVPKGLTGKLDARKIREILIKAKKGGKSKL

[18] = Luminescence Cell-Based Dose Confirmation HTS to Identify Inhibitors of Platelet Dense Granule Release. [Related pubchem assays: 1663 (Primary HTS), 1678 (Summary of Project)]; format: functional
[19] = molecular target: SWI/SNF-related matrix-associated actin-dependent regulator of chromatin subfamily A member 2 (Homo sapiens, UniProt P51531); assay: Luminescence-based cell-based high throughput dose response assay to identify activators of the function of SWI/SNF related, matrix associated, actin dependent regulator of chromatin, subfamily a, member 2 (SMARCA2, BRM).; format: functional
SWI/SNF-related matrix-associated actin-dependent regulator of chromatin subfamily A member 2, sequence (P51531 whole entry): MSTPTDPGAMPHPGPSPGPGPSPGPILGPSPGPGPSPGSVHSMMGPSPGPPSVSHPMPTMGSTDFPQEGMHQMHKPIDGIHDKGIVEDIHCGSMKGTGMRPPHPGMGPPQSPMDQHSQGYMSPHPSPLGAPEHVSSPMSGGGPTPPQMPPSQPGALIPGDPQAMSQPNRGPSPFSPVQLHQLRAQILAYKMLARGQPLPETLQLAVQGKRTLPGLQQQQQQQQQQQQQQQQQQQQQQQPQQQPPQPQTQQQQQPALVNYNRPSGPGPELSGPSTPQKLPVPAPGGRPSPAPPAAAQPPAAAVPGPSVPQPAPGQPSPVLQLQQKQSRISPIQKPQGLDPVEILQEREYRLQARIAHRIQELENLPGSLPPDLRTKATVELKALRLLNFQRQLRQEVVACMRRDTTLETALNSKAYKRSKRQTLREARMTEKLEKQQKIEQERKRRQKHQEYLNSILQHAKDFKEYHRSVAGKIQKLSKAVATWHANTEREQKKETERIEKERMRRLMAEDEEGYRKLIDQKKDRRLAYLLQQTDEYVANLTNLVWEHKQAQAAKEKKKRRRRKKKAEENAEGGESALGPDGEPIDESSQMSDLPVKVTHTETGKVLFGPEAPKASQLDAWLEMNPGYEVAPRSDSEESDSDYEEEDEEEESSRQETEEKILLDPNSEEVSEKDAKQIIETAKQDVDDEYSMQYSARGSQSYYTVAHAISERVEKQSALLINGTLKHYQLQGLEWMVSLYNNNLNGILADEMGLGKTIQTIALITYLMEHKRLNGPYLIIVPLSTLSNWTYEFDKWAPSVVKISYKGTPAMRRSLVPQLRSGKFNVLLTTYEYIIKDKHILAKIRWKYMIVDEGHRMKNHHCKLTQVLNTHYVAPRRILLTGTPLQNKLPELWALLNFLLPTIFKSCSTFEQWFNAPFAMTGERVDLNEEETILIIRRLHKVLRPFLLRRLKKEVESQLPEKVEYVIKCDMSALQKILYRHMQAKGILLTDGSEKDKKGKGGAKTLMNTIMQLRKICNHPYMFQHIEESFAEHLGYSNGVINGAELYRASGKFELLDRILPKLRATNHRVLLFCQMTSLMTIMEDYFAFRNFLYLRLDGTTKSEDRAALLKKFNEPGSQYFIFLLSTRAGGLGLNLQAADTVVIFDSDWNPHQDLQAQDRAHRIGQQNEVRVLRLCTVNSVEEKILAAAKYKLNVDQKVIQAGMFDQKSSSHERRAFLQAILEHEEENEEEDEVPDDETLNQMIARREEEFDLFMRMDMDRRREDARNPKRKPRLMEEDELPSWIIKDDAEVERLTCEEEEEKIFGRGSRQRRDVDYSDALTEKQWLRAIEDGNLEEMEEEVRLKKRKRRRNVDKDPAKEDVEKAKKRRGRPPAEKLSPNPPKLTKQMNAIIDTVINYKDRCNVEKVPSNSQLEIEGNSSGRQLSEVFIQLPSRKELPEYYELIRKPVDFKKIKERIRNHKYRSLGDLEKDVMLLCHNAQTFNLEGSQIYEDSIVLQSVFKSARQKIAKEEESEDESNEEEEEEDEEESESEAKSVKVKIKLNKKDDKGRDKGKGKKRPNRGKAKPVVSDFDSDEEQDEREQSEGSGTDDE

[20] = Counterscreen for activators of the function of SWI/SNF related, matrix associated, actin dependent regulator of chromatin, subfamily a, member 2 (SMARCA2, BRM): Luminescence-based cell-based high throughput dose response assay to identify non-selective compounds using the VP16 reporter assay.; format: functional
[21] = molecular target: Protein Wnt-3a (Mus musculus, UniProt P27467); assay: Wnt3a-driven reporter signaling inhibition, dose response, selectivity assay for Gli-SUFU antagonist project, Wnt-LIGHT cells, luminescence (AID 651570); format: functional; conditions: read-out: IC50_Mean;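 note: Wnt-LIGHT reporter cells stimulated with conditioned medium from Wnt3a-producing cells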
[22] = molecular target: Photoreceptor-specific nuclear receptor (Homo sapiens, UniProt Q9Y5X4); format: functional, cell-based;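 note: CHO-S cells with Gal4-NCOR and VP16-NR2E3 two-hybrid luciferase reporter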
[23] = Luminescence Cell-Based Dose Retest to Confirm Inhibitors of Cancer Stem Cells. [Related pubchem assays (depositor defined):AID2717, AID2721]; format: functional; conditions: Homo sapiens
[24] = system: HEK293; assay: inhibitors of LMP1-driven NF-kB reporter, dose response, cell-based, HEK293, luciferase, cherry-pick (AID 588343); format: functional; conditions: Homo sapiens
[25] = molecular target: Paired box protein Pax-8 (Homo sapiens, UniProt Q06710); assay: inhibitors of PAX8-driven TPO luciferase reporter, dose response, RMG-I cells, cherry-pick (AID 687027); format: functional, cell-based;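 note: luciferase reporter driven by Pax8 target thyroperoxidase promoter measured by SteadyGlo luminescence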
Paired box protein Pax-8, sequence (Q06710 whole entry): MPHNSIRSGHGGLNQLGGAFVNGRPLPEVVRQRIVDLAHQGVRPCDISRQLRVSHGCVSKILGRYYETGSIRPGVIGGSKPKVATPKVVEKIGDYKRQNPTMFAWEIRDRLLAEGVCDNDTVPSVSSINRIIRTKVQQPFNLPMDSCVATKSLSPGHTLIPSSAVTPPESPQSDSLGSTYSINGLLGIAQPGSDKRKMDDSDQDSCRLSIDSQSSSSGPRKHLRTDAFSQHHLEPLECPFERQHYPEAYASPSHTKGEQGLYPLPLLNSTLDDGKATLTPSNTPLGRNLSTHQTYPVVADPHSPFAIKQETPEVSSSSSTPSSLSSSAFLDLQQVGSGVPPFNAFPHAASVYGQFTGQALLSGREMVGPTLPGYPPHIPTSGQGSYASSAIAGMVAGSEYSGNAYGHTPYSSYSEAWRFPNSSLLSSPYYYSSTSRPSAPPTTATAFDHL

Glucose-6-phosphate 1-dehydrogenase, sequence (P11413 whole entry): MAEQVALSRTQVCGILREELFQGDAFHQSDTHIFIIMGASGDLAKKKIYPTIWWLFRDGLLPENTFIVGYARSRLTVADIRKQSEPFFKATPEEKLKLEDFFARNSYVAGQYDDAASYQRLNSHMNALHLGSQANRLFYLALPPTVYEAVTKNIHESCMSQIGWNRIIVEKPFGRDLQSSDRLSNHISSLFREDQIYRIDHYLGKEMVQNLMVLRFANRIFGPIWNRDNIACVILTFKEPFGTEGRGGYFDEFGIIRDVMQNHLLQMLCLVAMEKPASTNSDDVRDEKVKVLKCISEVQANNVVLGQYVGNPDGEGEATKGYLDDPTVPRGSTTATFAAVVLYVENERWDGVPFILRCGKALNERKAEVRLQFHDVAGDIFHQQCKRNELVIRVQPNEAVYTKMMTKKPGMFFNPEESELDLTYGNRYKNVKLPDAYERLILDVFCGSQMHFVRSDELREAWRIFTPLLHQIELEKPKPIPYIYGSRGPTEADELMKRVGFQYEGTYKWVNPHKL

COc1ccc(C(=O)ON=C2C=C(C)C(=O)C(C)=C2)cc1
IC50 [1]: > 80 µM (inactive) | IC50 [2]: 0.574 µM (active)

Oc1nncc2c3ccccc3n(Cc3cccc(Cl)c3)c12
IC50 [3]: 4.55 µM (active) | IC50 [4]: 4.44 µM (active)

COc1cccc(C2c3[nH]c4ccccc4c3CCN2Cc2ncc[nH]2)c1 (centres undefined)
AC50 [5]: 123 µM (active)

Cn1cc(CC(=O)NCCCN2CCCC2)c2ccccc21
AC50 [6]: 43.5 µM (active)

Cc1ccc(C2=N/C(=C/N3CCOCC3)C(=O)O2)cc1
IC50 [7]: 142 µM (inactive)

Cc1ccc(NC(=O)Nc2ccc3c(c2)N(C)C(=O)CS3)nc1
AC50 [8]: > 350 µM (inactive)

Fc1ccc2nc(N3CCCC3)sc2c1
AC50 [8]: 42.8 µM (active)

Nn1c(SCc2nc3ccccc3[nH]2)nnc1-c1cccnc1
AC50 [9]: 5.06 µM (active)

O=C(Nc1ccccc1Cl)c1ccc2nccnc2c1
AC50 [8]: 67.6 µM (active)

COc1ccc(-c2cc(-c3ccccc3)nc(NN)n2)cc1OC
IC50 [10]: 11.2 µM (active) | EC50 [11]: > 40 µM (inactive)

Cc1ccc(C)c(NC(=O)COC(=O)c2cccc3c2C(=O)c2ccccc2C3=O)c1
EC50 [12]: > 120 µM (not active) | EC50 [13]: > 60 µM (not active) | EC50 [14]: > 120 µM (not active) | IC50 [15]: > 64.6 µM (inactive) | IC50 [16]: > 64.6 µM (inactive)

Brc1ccc(N=Nc2ccc3ccccc3n2)cc1
IC50 [10]: > 40 µM (not active) | EC50 [11]: > 40 µM (inactive) | EC50 [12]: 0.107 µM (active) | EC50 [14]: 0.125 µM (active) | EC50 [17]: 0.299 µM (active) | EC50 [18]: 0.969 µM (active)

O=C(CNc1ccc(Br)cc1)c1ccc(Br)s1
IC50 [10]: 14.7 µM (active) | EC50 [11]: > 40 µM (inactive) | EC50 [19]: > 91.1 µM (inactive) | EC50 [20]: > 91.1 µM (inactive)

O=C(C[C@@H]1C/C=C\C[C@H](NC(=O)OCC2c3ccccc3-c3ccccc32)C(=O)OC[C@H]2CCCN2C1=O)N[C@H](CO)Cc1ccccc1
IC50 [21]: 8.46 µM (active)

CCCCC[C@@H]1C=C(C(=O)O)[C@H](c2ccc(Cl)c(Cl)c2)N1S(=O)(=O)c1ccc(C)cc1
IC50 [22]: 4.88 µM (active) | AC50 [23]: 4.58 µM (active)

COc1ccc(NC(=O)c2ccc(-n3cncn3)c([N+](=O)[O-])c2)cc1OC
AC50 [9]: 2.2 µM (active)

COC(=O)c1c(NC(=O)C2COc3ccccc3O2)sc2c1CCN(C(=O)OC)C2 (centres undefined)
IC50 [15]: > 64.6 µM (inactive) | IC50 [16]: > 64.6 µM (inactive)

COc1ccc(NC(=O)N[C@@H]2CC[C@@H](CCn3cc(-c4ccccn4)nn3)O[C@H]2CO)cc1
AC50 [5]: 82.2 µM (active)

CCN(CC)c1ccc(C(NC(=O)C(C)C)c2ccc3cccnc3c2O)cc1 (centres undefined)
AC50 [24]: 7.26 µM (active) | AC50 [25]: 1.09 µM (active) | AC50 [6]: 3.72 µM (active)

C[C@@H]1CN([C@H]2CC[C@](C#N)(c3ccc(F)cc3)CC2)CC[C@]1(C(=O)O)c1ccccc1 [LEVOCABASTINE HYDROCHLORIDE]
AC50 [6]: 197 µM (active)
